Measured values taken from ChEMBL document CHEMBL1800042, “Generation of 3,8-substituted 1,2,4-triazolopyridines as potent inhibitors of human 11β-hydroxysteroid dehydrogenase type 1 (11β-HSD-1)” (Bioorg Med Chem Lett, 2011).
Values after ≈ are worked out from the molar mass of the structure shown.

Experiment: Solubility of the compound at pH 7.4
Type: physicochemical
Details: buffer

SMILES	solubility [µg/mL]
Cc1c(Cl)cccc1Oc1cccn2c(C34CCC(CC3)C4)nnc12	1 (≈ 2.83 µM)
Cc1c(Cl)cccc1Oc1cccn2c(C34CCC(F)(CC3)CC4)nnc12	1 (≈ 2.59 µM)
Cc1c(Cl)cccc1Oc1cccn2c(C34CCC(O)(CC3)CC4)nnc12	11 (≈ 28.7 µM)
